We go through five molecules from PMC9675754, “Structure of the human heparan sulfate polymerase complex EXT1-EXT2” (Nature Communications, 2022).

B1: human EXT1 (exostosin-1), N-terminally truncated, aa29-aa746 (enzyme, UniProt Q16394 29-746, looked up)
chain: RASRSHSRREEHSGRNGLHHPSPDHFWPRFPDALRPFVPWDQLENEDSSVHISPRQKRDANSSIYKGKKCRMESCFDFTLCKKNGFKVYVYPQQKGEKIAESYQNILAAIEGSRFYTSDPSQACLFVLSLDTLDRDQLSPQYVHNLRSKVQSLHLWNNGRNHLIFNLYSGTWPDYTEDVGFDIGQAMLAKASISTENFRPNFDVSIPLFSKDHPRTGGERGFLKFNTIPPLRKYMLVFKGKRYLTGIGSDTRNALYHVHNGEDVVLLTTCKHGKDWQKHKDSRCDRDNTEYEKYDYREMLHNATFCLVPRGRRLGSFRFLEALQAACVPVMLSNGWELPFSEVINWNQAAVIGDERLLLQIPSTIRSIHQDKILALRQQTQFLWEAYFSSVEKIVLTTLEIIQDRIFKHISRNSLIWNKHPGGLFVLPQYSSYLGDFPYYYANLGLKPPSKFTAVIHAVTPLVSQSQPVLKLLVAAAKSQYCAQIIVLWNCDKPLPAKHRWPATAVPVVVIEGESKVMSSRFLPYDNIITDAVLSLDEDTVLSTTEVDFAFTVWQSFPERIVGYPARSHFWDNSKERWGYTSKWTNDYSMVLTGAAIYHKYYHYLYSHYLPASLKNMVDQLANCEDILMNFLVSAVTKLPPIKVTQKKQYKETMMGQTSRASRWADPDHFAQRQSCMNTFASWFGYMPLIHSQMRLDPVLFKDQVSILRKKYRDIERL
modifications: N-linked glycan at Asn330
notes: exostosin-1 (EXT1), human, residues 29-746, lacking the N-terminal transmembrane helix; Only obtained by co-expression with EXT2; Model built for aa89-aa728 with some loops missing; also called EXT1 WT; not shown: secreted alkaline phosphatase, N-terminal, cleaved; 8x His, C-terminal, kept
B2: human EXT2 (exostosin-2), N-terminally truncated, aa47-aa718 (enzyme, UniProt Q93063 47-718, looked up)
chain: PHSIESSNDWNVEKRSIRDVPVVRLPADSPIPERGDLSCRMHTCFDVYRCGFNPKNKIKVYIYALKKYVDDFGVSVSNTISREYNELLMAISDSDYYTDDINRACLFVPSIDVLNQNTLRIKETAQAMAQLSRWDRGTNHLLFNMLPGGPPDYNTALDVPRDRALLAGGGFSTWTYRQGYDVSIPVYSPLSAEVDLPEKGPGPRQYFLLSSQVGLHPEYREDLEALQVKHGESVLVLDKCTNLSEGVLSVRKRCHKHQVFDYPQVLQEATFCVVLRGARLGQAVLSDVLQAGCVPVVIADSYILPFSEVLDWKRASVVVPEEKMSDVYSILQSIPQRQIEEMQRQARWFWEAYFQSIKAIALATLQIINDRIYPYAAISYEEWNDPPAVKWGSVSNPLFLPLIPPQSQGFTAIVLTYDRVESLFRVITEVSKVPSLSKLLVVWNNQNKNPPEDSLWPKIRVPLKVVRTAENKLSNRFFPYDEIETEAVLAIDDDIIMLTSDELQFGYEVWREFPDRLVGYPGRLHLWDHEMNKWKYESEWTNEVSMVLTGAAFYHKYFNYLYTYKMPGDIKNWVDAHMNCEDIAMNFLVANVTGKAVIKVTPRKKFKCPECTAIDGLSLDQTHMVERSECINKFASVFGTMPLKVVEHRADPVLYKDDFPEKLKSFPNIGSL
modifications: N-linked glycan at Asn637
notes: exostosin-2 (EXT2), human, residues 47-718, lacking the N-terminal transmembrane helix; Only obtained by co-expression with EXT1; Model built for aa78-aa702 with some loops missing; also called EXT2 WT; not shown: secreted alkaline phosphatase, N-terminal, cleaved; 8x His, C-terminal, kept

In assay [1] the target is T1, EXT1-EXT2 complex (EXT1 GlcA-T site) (Homo sapiens, UniProt Q16394).
T1 construct: 1:1 heterodimer of Golgi-luminal parts, transmembrane helix removed (EXT1 aa29-746, EXT2 aa47-718), C-terminal 8xHis kept, secreted alkaline phosphatase fusion cut off with TEV; co-expressed in FreeStyle 293-F; about 160 kDa; with Exostosin-2
T1 sequence (Q16394 29-746): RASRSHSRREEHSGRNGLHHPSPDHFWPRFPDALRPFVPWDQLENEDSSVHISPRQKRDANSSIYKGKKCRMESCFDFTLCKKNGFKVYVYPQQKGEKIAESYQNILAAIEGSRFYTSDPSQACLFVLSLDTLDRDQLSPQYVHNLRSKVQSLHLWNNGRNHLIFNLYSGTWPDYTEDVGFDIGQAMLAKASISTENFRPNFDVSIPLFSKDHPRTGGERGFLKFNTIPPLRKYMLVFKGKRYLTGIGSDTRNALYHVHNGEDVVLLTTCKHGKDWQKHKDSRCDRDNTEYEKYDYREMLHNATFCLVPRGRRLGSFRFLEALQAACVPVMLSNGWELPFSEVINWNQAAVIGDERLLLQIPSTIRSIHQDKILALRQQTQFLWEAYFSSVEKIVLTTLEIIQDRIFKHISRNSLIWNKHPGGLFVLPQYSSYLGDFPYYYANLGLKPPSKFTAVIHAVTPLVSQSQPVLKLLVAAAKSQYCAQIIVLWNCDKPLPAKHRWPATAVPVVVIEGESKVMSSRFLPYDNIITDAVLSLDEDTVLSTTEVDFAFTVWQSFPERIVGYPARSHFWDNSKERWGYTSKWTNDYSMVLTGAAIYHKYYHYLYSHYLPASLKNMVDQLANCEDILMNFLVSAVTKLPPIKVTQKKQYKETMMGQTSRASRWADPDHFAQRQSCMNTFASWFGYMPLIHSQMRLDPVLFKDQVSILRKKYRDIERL
T1 sequence (Q93063 47-718 partner): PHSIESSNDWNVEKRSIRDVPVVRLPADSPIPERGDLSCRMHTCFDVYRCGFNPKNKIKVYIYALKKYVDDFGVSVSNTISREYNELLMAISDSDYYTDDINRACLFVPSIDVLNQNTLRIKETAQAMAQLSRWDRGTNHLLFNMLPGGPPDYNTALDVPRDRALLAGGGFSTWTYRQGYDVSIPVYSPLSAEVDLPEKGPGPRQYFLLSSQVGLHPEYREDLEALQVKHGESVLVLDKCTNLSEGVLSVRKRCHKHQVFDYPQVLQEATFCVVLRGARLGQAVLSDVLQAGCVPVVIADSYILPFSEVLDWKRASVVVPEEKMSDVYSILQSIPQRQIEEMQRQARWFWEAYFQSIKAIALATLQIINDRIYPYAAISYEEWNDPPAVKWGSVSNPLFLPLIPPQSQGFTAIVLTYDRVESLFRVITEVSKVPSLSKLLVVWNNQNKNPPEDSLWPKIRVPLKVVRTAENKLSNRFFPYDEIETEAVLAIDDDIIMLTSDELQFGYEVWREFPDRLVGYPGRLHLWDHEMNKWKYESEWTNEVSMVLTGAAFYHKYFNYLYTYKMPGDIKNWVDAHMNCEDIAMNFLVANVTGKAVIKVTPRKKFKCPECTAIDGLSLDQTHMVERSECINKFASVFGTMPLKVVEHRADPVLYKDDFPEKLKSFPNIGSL
Kind of assay: FACE glycosyl transfer assay. The assay is classed as biochemical. Conditions: acceptor Alexa Fluor 430-labelled dp9 5 uM; 1 mM UDP-GlcA; 10 mM MnCl2; pH 7.2; 30 C; EXT1 GlcA-T domain.

For assay [2], the target named is T2, EXT1-EXT2 complex (GlcNAc-T sites of EXT1 and EXT2) (Homo sapiens, UniProt Q16394+Q93063).
T2 construct: same complex as P1; separate entry only because each chain has its own GlcNAc-T site; 1:1 heterodimer (EXT1 aa29-746, EXT2 aa47-718), C-terminal 8xHis kept, alkaline phosphatase fusion cut off with TEV; FreeStyle 293-F
T2 sequence (Q16394 29-746): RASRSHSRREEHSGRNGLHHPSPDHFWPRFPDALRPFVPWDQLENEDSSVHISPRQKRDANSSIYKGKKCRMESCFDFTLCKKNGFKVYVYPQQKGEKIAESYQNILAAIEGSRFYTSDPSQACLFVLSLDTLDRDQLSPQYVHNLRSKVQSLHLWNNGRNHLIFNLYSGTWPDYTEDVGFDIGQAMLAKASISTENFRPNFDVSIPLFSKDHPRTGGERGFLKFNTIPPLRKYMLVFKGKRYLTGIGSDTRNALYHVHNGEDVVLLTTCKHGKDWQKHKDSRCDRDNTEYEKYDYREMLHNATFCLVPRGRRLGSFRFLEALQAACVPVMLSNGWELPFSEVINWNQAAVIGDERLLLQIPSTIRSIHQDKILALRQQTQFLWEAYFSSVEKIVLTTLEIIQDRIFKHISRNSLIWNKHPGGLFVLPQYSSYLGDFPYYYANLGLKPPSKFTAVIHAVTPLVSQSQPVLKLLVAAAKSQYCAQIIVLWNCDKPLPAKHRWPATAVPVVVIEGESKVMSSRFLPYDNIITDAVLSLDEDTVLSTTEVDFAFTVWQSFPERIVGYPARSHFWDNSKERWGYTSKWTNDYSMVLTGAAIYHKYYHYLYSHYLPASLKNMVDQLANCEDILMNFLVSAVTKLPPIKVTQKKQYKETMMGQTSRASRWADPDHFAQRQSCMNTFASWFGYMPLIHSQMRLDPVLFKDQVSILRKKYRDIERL
T2 sequence (Q93063 47-718): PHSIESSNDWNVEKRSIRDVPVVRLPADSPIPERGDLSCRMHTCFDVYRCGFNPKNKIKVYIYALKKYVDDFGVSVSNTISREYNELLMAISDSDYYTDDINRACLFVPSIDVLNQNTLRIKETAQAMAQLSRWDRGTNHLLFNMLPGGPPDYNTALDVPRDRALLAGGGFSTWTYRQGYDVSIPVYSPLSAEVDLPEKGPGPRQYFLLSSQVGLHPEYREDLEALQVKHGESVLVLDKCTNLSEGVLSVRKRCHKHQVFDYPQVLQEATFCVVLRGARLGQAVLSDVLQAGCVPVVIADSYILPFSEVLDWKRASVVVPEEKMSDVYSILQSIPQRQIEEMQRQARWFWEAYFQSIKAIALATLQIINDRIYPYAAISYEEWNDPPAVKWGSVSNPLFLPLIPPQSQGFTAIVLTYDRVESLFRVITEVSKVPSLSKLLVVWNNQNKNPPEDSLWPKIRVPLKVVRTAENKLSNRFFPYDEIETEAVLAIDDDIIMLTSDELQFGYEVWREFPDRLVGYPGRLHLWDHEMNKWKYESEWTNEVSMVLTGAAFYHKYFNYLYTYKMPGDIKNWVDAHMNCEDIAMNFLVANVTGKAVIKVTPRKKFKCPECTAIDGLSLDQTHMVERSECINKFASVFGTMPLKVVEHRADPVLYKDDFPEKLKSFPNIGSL
The assay can be described thus: FACE glycosyl transfer assay. The class given is biochemical. Conditions: acceptor Alexa Fluor 430-labelled dp8 5 uM; 1 mM UDP-GlcNAc; 10 mM MnCl2; pH 7.2; 30 C; GlcNAc-T domains of EXT1 and EXT2.

The target of assay [3] is T1, EXT1-EXT2 complex (EXT1 GlcA-T site). The assay can be described thus: cryo-EM structure, […] A. The class given is binding. Conditions: EXT1 GlcA-T active site; UDP-GlcA, UDP-GlcNAc and MnCl2 1 mM each added, only UDP seen; pH 7.2.
Assay [4] deals with B2. The assay can be described thus: cryo-EM structure; 0.4 mg/mL purified, co-expressed EXT1-EXT2 with 1 mM UDP-GlcNAc, 1 mM UDP-GlcA and 1 mM MnCl2; single-particle analysis, 2.8 Å. Conditions: both partners purified.
For assay [5], the target named is T3, human EXT1 aa29-aa746 D162N/D164N (human, UniProt Q16394 29-746, D162N | D164N).
T3 construct: exostosin-1 (EXT1), human, residues 29-746, with point mutations in the GlcA-T domain; also called EXT1 D162N/D164N; source: FreeStyle 293-F cells, co-expressed with wild-type EXT2, purified as the wild-type complex; not shown: secreted alkaline phosphatase, N-terminal, cleaved; 8x His, C-terminal, kept
T3 sequence (looked up): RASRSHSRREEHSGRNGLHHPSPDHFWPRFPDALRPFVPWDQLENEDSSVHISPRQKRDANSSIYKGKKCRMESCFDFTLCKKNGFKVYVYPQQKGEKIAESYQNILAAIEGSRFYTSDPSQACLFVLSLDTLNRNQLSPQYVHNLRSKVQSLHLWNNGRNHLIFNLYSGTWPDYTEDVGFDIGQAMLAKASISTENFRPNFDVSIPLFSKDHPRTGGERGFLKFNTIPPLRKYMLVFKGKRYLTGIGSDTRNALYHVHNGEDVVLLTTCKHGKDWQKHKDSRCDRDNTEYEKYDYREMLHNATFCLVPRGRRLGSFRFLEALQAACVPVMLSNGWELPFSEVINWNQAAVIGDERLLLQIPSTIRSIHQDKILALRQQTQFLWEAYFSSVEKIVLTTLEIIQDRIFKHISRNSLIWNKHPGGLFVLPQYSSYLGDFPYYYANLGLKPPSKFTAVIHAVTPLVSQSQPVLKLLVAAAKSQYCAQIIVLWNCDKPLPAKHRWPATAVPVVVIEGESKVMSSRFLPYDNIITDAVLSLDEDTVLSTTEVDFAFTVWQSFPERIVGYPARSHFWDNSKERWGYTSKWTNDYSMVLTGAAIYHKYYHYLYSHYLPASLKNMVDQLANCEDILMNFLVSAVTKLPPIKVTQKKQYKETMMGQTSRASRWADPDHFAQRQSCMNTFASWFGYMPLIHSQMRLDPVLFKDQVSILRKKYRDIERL
Kind of assay: negative stain EM; purified complex diluted to 0.02 mg/mL in buffer A (50 mM Tris pH 7.8, 150 mM NaCl); mica-carbon flotation. Conditions: both partners purified.

The target of assay [6] is B1. The assay can be described thus: cryo-EM structure; 0.4 mg/mL purified, co-expressed EXT1-EXT2 with 1 mM UDP-GlcNAc, 1 mM UDP-GlcA and 1 mM MnCl2; single-particle analysis, 2.8 Å. Conditions: both partners purified.

Turning to `O=C(O)[C@H]1O[C@H](OP(=O)(O)OP(=O)(O)OC[C@H]2O[C@@H](n3ccc(=O)[nH]c3=O)[C@H](O)[C@@H]2O)[C@H](O)[C@@H](O)[C@@H]1O` [UDP-GlcA], the “FACE glycosyl transfer assay” value in assay [1] is reported as “the addition of a GlcA moiety onto dp9 enhanced the migration rate”.
Turning to `CC(=O)N[C@H]1[C@@H](OP(=O)(O)OP(=O)(O)OC[C@H]2O[C@@H](n3ccc(=O)[nH]c3=O)[C@H](O)[C@@H]2O)O[C@H](CO)[C@@H](O)[C@@H]1O` [UDP-GlcNAc], the “FACE glycosyl transfer assay” value in assay [2] is “the transfer of a GlcNAc residue onto dp8 led to a slower migration rate”.
Regarding `O=c1ccn([C@@H]2O[C@H](COP(=O)(O)OP(=O)(O)O)[C@@H](O)[C@H]2O)c(=O)[nH]1` [UDP], the “cryo-EM structure, 2.8 A” value in assay [3] is on record as “we found an additional EM density that fits a UDP ligand”.
One may read the stoichiometry N as a count of units in the complex or per binding partner. Turning to B1, the “stoichiometry N” value in assay [4] was determined as 1.
Consider B2, for which the binding result in assay [5] and in assay [6] was “binds” throughout.
